{
  "source": "patent US9938562B2",
  "about": "“Naphthalene derived chromogenic enzyme substrates” (Glycosynth Limited, priority 2013, dated 2018)",
  "key": {"[1]": {"test_system": "Pseudomonas aeruginosa NCTC 10662", "assay": "Agar plate multi-point inoculation, colour", "type": "cell-based", "settings": "Columbia agar, FAC 500 mg/L, substrate 300 mg/L, 37° C. 18 h in air"}, "[2]": {"test_system": "Yersinia enterocolitica NCTC 11176", "assay": "Agar plate multi-point inoculation, colour", "type": "cell-based", "settings": "Columbia agar, FAC 500 mg/L, substrate 300 mg/L, 37° C. 18 h in air"}, "[3]": {"test_system": "Staphylococcus aureus NCTC 6571", "assay": "Agar plate multi-point inoculation, colour", "type": "cell-based", "settings": "Columbia agar, FAC 500 mg/L, substrate 300 mg/L, 37° C. 18 h in air"}, "[4]": {"test_system": "Bacillus subtilis NCTC 9372", "assay": "Agar plate multi-point inoculation, colour", "type": "cell-based", "settings": "Columbia agar, FAC 500 mg/L, substrate 300 mg/L, 37° C. 18 h in air"}, "[5]": {"test_system": "Gram-positive or Gram-negative strains", "assay": "Toxicity / growth of microorganisms on substrate agar plates", "type": "cell-based", "settings": "substrate 300 mg/L", "description": "This compound was tested on agar plates by multi-point inoculation. The plates were made from Columbia agar (Oxoid, Basingstoke, UK) (100 ml) supplemented with ferric ammonium citrate (FAC) (50 mg). After the agar had been autoclaved (121° C.) and cooled to 50° C., a filter sterilized solution of the substrate (8) (30 mg) dissolved in N-methylpyrrolidone (NMP) (200 μL) was added, thus giving a substrate concentration of 300 mg/L. After pouring, the plates were inoculated with a range of microorganisms and incubated at 37° C. for 18 h in air (Table 1).\nIn the publication of Zincke and Fries, the authors reported that treatment of 1,4,6,7-tetrabromo-DHN (20) with tin (II) chloride led to the removal of the bromines in the 1 and 4 positions. Their work was repeated and the expected 6,7-dibromo-DHN (21) was obtained smoothly and in good yield (68%). 6,7-Dibromo-DHN (21) is isomeric with the 1,4-dibromo compound which had proven unsuccessful as an aglycone for the detection of microorganisms. Notwithstanding this latter fact, we proceeded to evaluate the properties of 6,7-dibromo-DHN […] as an aglycone for artificial chromogenic enzyme substrates. […]"}, "[6]": {"test_system": "Enterococcus faecalis NCTC 775", "assay": "Agar plate multi-point inoculation, colour", "type": "cell-based", "settings": "Columbia agar, FAC 500 mg/L, substrate 300 mg/L, 37° C. 18 h in air"}, "[7]": {"test_system": "Enterococcus faecium NCTC 7171", "assay": "Agar plate multi-point inoculation, colour", "type": "cell-based", "settings": "Columbia agar, FAC 500 mg/L, substrate 300 mg/L, 37° C. 18 h in air"}, "[8]": {"test_system": "Acinetobacter baumannii NCTC 19606", "assay": "Agar plate multi-point inoculation, colour", "type": "cell-based", "settings": "Columbia agar, FAC 500 mg/L, substrate 300 mg/L, 37° C. 18 h in air"}, "[9]": {"test_system": "Serratia marcescens NCTC 10211", "assay": "Agar plate multi-point inoculation, colour", "type": "cell-based", "settings": "Columbia agar, FAC 500 mg/L, substrate 300 mg/L, 37° C. 18 h in air"}, "[10]": {"test_system": "range of microorganisms", "assay": "Agar plate evaluation with a range of microorganisms (hue, diffusion, background)", "type": "cell-based"}, "[11]": {"test_system": "Escherichia coli NCTC 10418", "assay": "Agar plate multi-point inoculation, colour", "type": "cell-based", "settings": "Columbia agar, FAC 500 mg/L, substrate 300 mg/L, 37° C. 18 h in air"}, "[12]": {"test_system": "Salmonella typhimurium NCTC 74", "assay": "Agar plate multi-point inoculation, colour", "type": "cell-based", "settings": "Columbia agar, FAC 500 mg/L, substrate 300 mg/L, 37° C. 18 h in air"}, "[13]": {"test_system": "Listeria monocytogenes NCTC 11994", "assay": "Agar plate multi-point inoculation, colour", "type": "cell-based", "settings": "Columbia agar, FAC 500 mg/L, substrate 300 mg/L, 37° C. 18 h in air"}, "[14]": {"test_system": "Enterobacter cloacae NCTC 11936", "assay": "Agar plate multi-point inoculation, colour", "type": "cell-based", "settings": "Columbia agar, FAC 500 mg/L, substrate 300 mg/L, 37° C. 18 h in air"}, "[15]": {"test_system": "Staphylococcus aureus (MRSA) NCTC 11939", "assay": "Agar plate multi-point inoculation, colour", "type": "cell-based", "settings": "Columbia agar, FAC 500 mg/L, substrate 300 mg/L, 37° C. 18 h in air"}, "[16]": {"test_system": "Providencia rettgeri NCTC 7475", "assay": "Agar plate multi-point inoculation, colour", "type": "cell-based", "settings": "Columbia agar, FAC 500 mg/L, substrate 300 mg/L, 37° C. 18 h in air"}, "[17]": {"test_system": "Staphylococcus epidermidis NCTC 11047", "assay": "Agar plate multi-point inoculation, colour", "type": "cell-based", "settings": "Columbia agar, FAC 500 mg/L, substrate 300 mg/L, 37° C. 18 h in air"}, "[18]": {"test_system": "Burkholderia cepacia NCTC 10931", "assay": "Agar plate multi-point inoculation, colour", "type": "cell-based", "settings": "Columbia agar, FAC 500 mg/L, substrate 300 mg/L, 37° C. 18 h in air"}, "[19]": {"test_system": "Steptococcus pyogenes NCTC 8306", "assay": "Agar plate multi-point inoculation, colour", "type": "cell-based", "settings": "Columbia agar, FAC 500 mg/L, substrate 300 mg/L, 37° C. 18 h in air"}, "[20]": {"test_system": "Klebsiella pneumoniae NCTC 9528", "assay": "Agar plate multi-point inoculation, colour", "type": "cell-based", "settings": "Columbia agar, FAC 500 mg/L, substrate 300 mg/L, 37° C. 18 h in air"}, "[21]": {"test_system": "Candida glabrata NCPF 3943", "assay": "Agar plate multi-point inoculation, colour", "type": "cell-based", "settings": "Columbia agar, FAC 500 mg/L, substrate 300 mg/L, 37° C. 18 h in air"}, "[22]": {"test_system": "Candida albicans ATCC 90028", "type": "cell-based", "settings": "Columbia agar, FAC 500 mg/L, substrate 300 mg/L, 37° C. 18 h in air"}},
  "data": [
    {"smiles": "OCC1OC(Oc2cc3ccccc3cc2O)C(O)C(O)C1O", "note": "[Compound 8, DHN-β-D-galactopyranoside]", "values": [
      {"measurement": "Colour", "setting": "[1]", "result": "−"},
      {"measurement": "Colour", "setting": "[2]", "result": "−"},
      {"measurement": "Colour", "setting": "[3]", "result": "−"},
      {"measurement": "Colour", "setting": "[4]", "result": "−"},
      {"measurement": "toxicity to strains tested", "setting": "[5]", "result": "no obvious toxicity"},
      {"measurement": "Colour", "setting": "[6]", "result": "−"},
      {"measurement": "Colour", "setting": "[7]", "result": "Tr."},
      {"measurement": "Colour", "setting": "[8]", "result": "−"},
      {"measurement": "Colour", "setting": "[9]", "result": "+"},
      {"measurement": "colour (hue) after hydrolysis", "setting": "[10]; agar plates with FAC", "result": "strong purple-maroon colour"},
      {"measurement": "formation of coloured chelate", "setting": "[10]; plates incubated under anaerobic conditions", "result": "still formed"},
      {"measurement": "sensitivity after autoclaving substrate in agar", "setting": "[10]; substrate added prior to autoclaving, 121° C. for 20 minutes", "result": "no decrease in sensitivity"},
      {"measurement": "Colour", "setting": "[11]", "result": "++"},
      {"measurement": "Colour", "setting": "[12]", "result": "−"},
      {"measurement": "melting point", "result": "> 230 °C (dec.)"},
      {"measurement": "Colour", "setting": "[13]", "result": "−"},
      {"measurement": "Colour", "setting": "[14]", "result": "++"},
      {"measurement": "Colour", "setting": "[15]", "result": "−"},
      {"measurement": "Colour", "setting": "[16]", "result": "−"},
      {"measurement": "Colour", "setting": "[17]", "result": "−"},
      {"measurement": "Colour", "setting": "[18]", "result": "−"},
      {"measurement": "Colour", "setting": "[19]", "result": "−"},
      {"measurement": "Colour", "setting": "[20]", "result": "++"},
      {"measurement": "Colour", "setting": "[21]", "result": "−"},
      {"measurement": "Colour", "setting": "[22]", "result": "−"}
    ]}
  ]
}
